Assay results reported in patent publication US12492378B2, “Stepwise method of producing various types of cells from pluripotent stem cells” (Kyoto University, priority 2018, dated 2025).

Assays:
[1] = test system: DLL1+ presomitic mesoderm cells; experiment: Induction of somite cells (SM) from presomitic mesoderm cells; assay type: cell-based, human; conditions: for PAX3-GFP+ cells: four days culture, FACS
Procedure: IPS cells were cultured in SCDF condition of Example 1 for 4 days, and a total of 1.0×10^5 DLL1^+ presomitic mesoderm cells sorted by FACS were seeded onto one well of a matrigel-coated 12-well plate and subsequently underwent the induction of somite cells (FIG. 3A). The induction of somite cells was carried out for 4 days in CDM basal medium supplemented with SB431542 and/or 5 μM CHIR99021. The medium was changed at day 3 of the induction of somite cells. The expression of PAX3-GFP was used as a somite cell marker. The added factors and their concentrations are as follows: • S10: SB431542 10 μM • C1: CHIR99021 1 μM • C5: […]20: FGF2 20 ng/ml • […]: IWR1 10 μM

PAX3-GFP iPS cells = experiment: Induction of presomitic mesoderm cells (PSM) from human iPS cells, FACS for DLL1 and PAX3-GFP; assay type: cell-based; conditions: single factor, 10 μM CHIR99021, CDM basal medium, 4 days
Procedure: Fluorescence-activated cell sorting (FACS) was performed by AriaII (BD) according to the manufacturer's protocol. Intracellular flow cytometry analysis was also performed by AriaII (BD) according to the manufacturer's protocol. Briefly, cells were fixed and permeabilized prior to the antibody staining. The expression rate of each differentiation marker was calculated by comparing that of iPSCs or induced somite cells. To minimize the effect of growth factors secreted from feeder cells or contained in a culture medium, SNL feeders were removed from an iPS cell culture, and human iPS cells were seeded onto matrigel (BD, Bedford, MA, USA) coated dishes (1.3×10^6 cells/10-cm dish). The iPS cells were cultured under feeder-free condition with […]1 medium (STEMCELL Technology, Vancouver, Canada) for 3 days. The iPS cells were then cultured in CDM basal medium supplemented with one of four factors or the appropriate combination of the four factors for 4 days (FIG. 2B). The added factors are as follows. […] To detect the induction efficiency of presomitic mesoderm cells, the cell population positive for DLL1, a surface marker for a presomitic mesoderm cell and the posterior portion of somite, and negative for PAX3-GFP, showing a newly formed and segmented somite cell, were detected by FACS (FIG. 2C). […]

dermomyotome cells = experiment: Induction of myotome cells (MYO) from dermomyotome cells; assay type: cell-based, human; conditions: 5 μM CHIR99021, 30 days; number of MYOD- and MYOG-positive cells
Procedure: We next tried to induce myotome cells directly from dermomyotome cells obtained in the above (3). The medium of the dermomyotome cell culture obtained in (3) was replaced with CDM basal medium supplemented with 5 μM of CHIR99021, and the cell culture was further cultured. The medium was changed every 3 days, and the culture was performed for 30 days. A small amount of cultured cells was collected every 6 days, and the expression of myogenic markers MYOD, MYOG and PAX7 was examined over time. Induction of the myogenic markers was found 18 to 30 days after the replacement of the medium. On the other hand, the expression of the dermomyotome cell marker ALX4 was decreased in a time dependent manner (FIG. 4D). The expression of MYOD and MYOG was also determined by immunocytochemistry. The induction efficiency from dermomyotome cells into myotome cells was estimated at approximately 22% based on the number of MYOD- and MYOG-positive cells.

heterotopic ossification = conditions: reported, Hino et al., 2017; cited from earlier work
[2] = test system: somite cell-derived mesenchymal stromal cells induced from FOP-iPS cells; experiment: 2D chondrogenic induction of FOP-iPS cell-derived mesenchymal stromal cells; assay type: cell-based, human; conditions: 5 days
Procedure: (§1) The GAG content in pellets was quantified with the Blyscan™ Glycosaminoglycan Assay Kit (Biocolor Ltd., Belfast, UK). The DNA content was quantified using the PicoGreen™ dsDNA Quantitation Kit (Invitrogen).
(§2) A total of 1.5×10^5 induced mesenchymal stromal cells or sclerotome cells were suspended in 5 μL of chondrogenic basal. medium (DMEM: F12 (Invitrogen), 1% (v/v) ITS+Premix (BD Biosciences, San Jose, CA, USA), 0.1 μM dexamethasone (WAKO), 0.17 mM L-Ascorbic acid 2-phosphate sesquimagnesium salt hydrate (Sigma), 0.35 mM Proline (Sigma), 0.15% (v/v) glucose (Sigma), 1 mM Na-pyruvate, 2 mM GlutaMax (Invitrogen) and 1% (v/v) FBS), and subsequently transferred to one well of a fibronectin-coated 24-well plate (BD Biosciences). After one hour of incubation at 37° C. in 5% CO2, cells formed micromass.
(§3) Then, the micromass was cultured in 1 ml of chondrogenic basal medium supplemented with 10 ng/ml BMP7 (R&D) and 10 ng/ml TGFβ3 (R&D) with or without 30 ng/ml Activin A (R&D) at 37° C. in 5% CO2 for 5 days.
The micromass induced from somite cell-derived mesenchymal stromal cells from FOP-iPS cells was also cultured in 1 mL of chondrogenic basal medium supplemented with 30 ng/ml Activin A (R&D) with/without 10 nM R667 (Toronto Research Chemicals, Toronto, ON, Canada) or 10 nM Rapamycin (MedChem Express, Monmouth Junction, NJ, USA).
(§4) Differentiation properties of obtained cells were analyzed by RT-qPCR analysis, glycosaminoglycans (GAG) quantification and Alcian Blue staining. Briefly, induced cells were fixed for 30 minutes with 4% paraformaldehyde (WAKO), rinsed with PBS, and then stained overnight with Alcian Blue solution (1% Alcian Blue, pH1) (MUTO PURE CHEMICAL CO., LTD, Tokyo, Japan).

[3] = test system: somite cell-derived sclerotome cells; experiment: 2D chondrogenic induction of FOP-iPS cell-derived sclerotome cells; assay type: cell-based, human; conditions: 30 ng/ml Activin A, 5 days
Procedure: as §1, §2, §3, §4

Cc1c[nH]c(-c2cnc(NCCNc3ccc(C#N)cn3)nc2-c2ccc(Cl)cc2Cl)n1 [CHIR99021, 6-[2-[4-(2,4-Dichlorophenyl)-5-(4-methyl-1H-imidazol-2-yl)pyrimidin-2-ylamino]ethylamino]pyridine-3-carbonitrile]
PAX3-GFP+ cells ([1]; 5 μM CHIR99021 (C5)): 70.7±0.1% | PAX3-GFP+ cells ([1]; 10 μM CHIR99021 (C10)): 0.3±0.0% | PARAXIS and MEOX1 expressions ([1]; S10C5 compared with S10I10 or S10, 4 days, RT-qPCR): highly induced | PARAXIS-expressing cells ([1]; immunohistochemistry using anti-PARAXIS (TCF15) antibody): found | DLL1+/PAX3-GFP- cells (induction efficiency) (PAX3-GFP iPS cells): 56.3±3.1% | induction efficiency from dermomyotome cells into myotome cells (dermomyotome cells): approximately 22%

CC1(C)CCC(C)(C)c2cc(Cn3cccn3)c(/C=C/c3ccc(C(=O)O)cc3)cc21 [R667]
inhibition of heterotopic ossification (heterotopic ossification): potent inhibitors | enhanced chondrogenesis by Alcian Blue staining ([2]; 10 nM, with 30 ng/ml Activin A): inhibition of the enhanced chondrogenesis was also confirmed | enhancement of glycosaminoglycan (GAG) production ([2]; 10 nM, with 30 ng/ml Activin A, GAG/DNA): significantly inhibited | enhancement of chondrogenic marker expressions ([2]; 10 nM, with 30 ng/ml Activin A, RT-qPCR): significantly inhibited

NC(=O)c1ccc(-c2nc(-c3ccc4c(c3)OCO4)c(-c3ccccn3)[nH]2)cc1 [SB431542]
PAX3-GFP+ cells ([1]; 10 μM SB431542 (S10)): 52.1±0.8%

B1: Activin A: a stimulator of mutant ACVR1; R&D (protein, UniProt P08476 311-426, looked up)
Inhibin beta A chain: GLECDGKVNICCKKQFFVSFKDIGWNDWIIAPSGYHANYCEGECPSHIAGTSGSSLSFHSTVINHYRMRGHSPFANLKSCCVPTKLRPMSMLYYDDGQNIIKKDIQNMIVEECGCS
modifications: Inhibin beta A chain
notes: a stimulator of mutant ACVR1; R&D
chondrogenic marker expressions, GAG production and Alcian Blue staining in FOP-iPS-derived vs resFOP-iPS-derived cells [3]: no difference | chondrogenesis (chondrogenic markers, GAG production) in FOP-iPS-derived vs resFOP-iPS-derived cells ([2]; 30 ng/ml Activin A): enhancement of the chondrogenesis was observed
